For the experiment, the system named is IBD model induced by 2.5% TNBS. The experiment is described as follows: TNBS-induced rat in vivo model of IBD. Also on record: species or system SD rats. The note with it: 6 days; for injuries of colorectal ulcers (anatomical and pathological HE): FIGS. 20 and 21. As to the method:
Test method: female SPF-grade SD rats each with a weight of 180-200 g were subjected to adaptive feeding for 5-7 days, and then started to be modeled. At the time of modeling, the rats were anesthetized, a pre-labeled cat catheter was inserted through the anus into the colon for 8 cm, 250 μL of 2.5% (wt/vol) TNBS solution was slowly injected into the cavity of the colon, the rat was inverted for 1 min, and then the catheter was slowly removed from the intestine. The rat was hold with its head down towards for 1 min and then put back to a cage. Rats in a blank group were administered with the same volume of normal saline. On the second day of modeling, i.e., D1, the medicament was administered through intragastric administration for 6 continuous days.
Detection indexes: the weight of each group of animals was observed and recorded every day, and feces of each animal were collected at the beginning of experiments to detect occult blood in the feces. If obvious blood in the feces cannot be determined, an occult blood detection kit was used for confirming the occult blood, and the result was recorded on an experimental record paper and photographed. After the end of the experiments, the fecal traits, occult blood, and weight change rate of each animal were scored, and the scores were added to give a DAI score for each animal. Colorectal tissue samples of the animals were collected and a wet weight was weighted for the subsequent pathological detection.

Entries after “also recorded” stand apart in the source; their conditions may differ.

With `COc1c2cc(c(O)c1OC)CCCCC(OS(=O)(=O)O)CCc1ccc(O)c-2c1` (centres unmarked) [compound H, 11-sulfonyloxy myricanol], the “colorectal wet weight (edema)” value (12.5 mg/kg intragastric, no statistical difference, FIG. 15) is “trend of reducing the edema”. Under “oral 12.5 mg/kg, FIG. 16”, the “area of colorectal ulcers” value is reported as “significantly reducing the area of colorectal ulcers” and the “area of colorectal ulcers, efficacy compared with 5-ASA” value was “slightly better efficacy than 5-aminosalicylic acid (5-ASA)”. Further, the “colorectal inflammation, efficacy compared with 5-ASA” value (oral 12.5 mg/kg, FIG. 17) is reported as “substantially same efficacy as 5-aminosalicylic acid (5-ASA)”. The “inflammation score of colorectal pathological HE” value (oral 12.5 mg/kg, FIG. 17, 12.5 mg/kg) is “significantly reducing the level of colorectal inflammation; also recorded: significantly improving the score of colorectal inflammation”. Besides, the “colorectal total injuries, efficacy compared with 5-ASA” value (oral 12.5 mg/kg, FIG. 18) is recorded as “substantially same efficacy as 5-aminosalicylic acid (5-ASA)”. Where the note is “oral 12.5 mg/kg, FIG. 18, 12.5 mg/kg”, the “score of total injuries of colorectal pathological HE” value is on record as “significantly reducing the level of colorectal total injures; also recorded: significantly reducing the degree of overall colorectal injuries”. Also, under “oral 12.5 mg/kg, FIG. 19”, the “injury score of colorectal ulcers, efficacy compared with 5-ASA” value is “slightly better efficacy than 5-aminosalicylic acid (5-ASA)”. Further, the “score of ulcerative injuries of colorectal pathological HE” value (oral 12.5 mg/kg, FIG. 19, 12.5 mg/kg) is recorded as “significantly reducing the injury score of colorectal ulcers; also recorded: significantly reducing the severity of injuries”. The “injuries of colorectal ulcers (anatomical and pathological HE)” value (oral 12.5 mg/kg) is “effect of reducing injuries of colorectal ulcers”. Moreover, the “injuries of colorectal ulcers (anatomical and pathological HE)” value (oral 25 mg/kg) is “effect of reducing injuries of colorectal ulcers”.

The values are drawn from patent US11602514B2, “Medicament having anti-inflammatory bowel disease function, and preparation method therefor and application thereof” (SUZHOU PHARMAVAN CO., LTD, priority 2018, dated 2023).
